Measurements reported in patent publication US6372772B1, “Inhibitors of redox signaling and methods of using same” (Prolx Pharmaceuticals Corporation, priority 1997, dated 2002).
Converted amounts (≈) assume the structure as drawn. Like-named read-outs stand apart in the source and are kept apart here.

Legend:
[1] = test system: leukemia cell line; conditions: cited from earlier work
[2] = target: T1, thioredoxin reductase/thioredoxin (Homo sapiens, UniProt Q16881); assay: thioredoxin reductase/thioredoxin-dependent insulin reduction assay; assay type: biochemical
T1 sequence (Q16881 1-499 isoform Q16881-5): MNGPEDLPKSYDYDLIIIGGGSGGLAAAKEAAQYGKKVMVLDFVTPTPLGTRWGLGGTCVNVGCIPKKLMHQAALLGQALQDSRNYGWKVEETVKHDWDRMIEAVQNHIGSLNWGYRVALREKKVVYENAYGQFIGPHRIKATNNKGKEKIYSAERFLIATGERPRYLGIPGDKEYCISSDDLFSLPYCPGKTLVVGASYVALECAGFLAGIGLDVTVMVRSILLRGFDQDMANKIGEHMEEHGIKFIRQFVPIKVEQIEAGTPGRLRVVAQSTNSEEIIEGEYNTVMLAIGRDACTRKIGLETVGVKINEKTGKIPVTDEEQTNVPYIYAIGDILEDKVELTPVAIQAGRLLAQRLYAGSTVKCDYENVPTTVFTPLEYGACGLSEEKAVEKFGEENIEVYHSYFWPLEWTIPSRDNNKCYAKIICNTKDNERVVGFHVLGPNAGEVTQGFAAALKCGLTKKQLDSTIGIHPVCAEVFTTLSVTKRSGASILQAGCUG

[3] = test system: NCI's panel of 60 human cancer cell lines; conditions: cited from earlier work
[4] = target: T2, glutathione reductase (Homo sapiens, UniProt P00390); assay: glutathione reductase assay (DTNB reduction); assay type: biochemical
T2 sequence (P00390 1-479 isoform P00390-2): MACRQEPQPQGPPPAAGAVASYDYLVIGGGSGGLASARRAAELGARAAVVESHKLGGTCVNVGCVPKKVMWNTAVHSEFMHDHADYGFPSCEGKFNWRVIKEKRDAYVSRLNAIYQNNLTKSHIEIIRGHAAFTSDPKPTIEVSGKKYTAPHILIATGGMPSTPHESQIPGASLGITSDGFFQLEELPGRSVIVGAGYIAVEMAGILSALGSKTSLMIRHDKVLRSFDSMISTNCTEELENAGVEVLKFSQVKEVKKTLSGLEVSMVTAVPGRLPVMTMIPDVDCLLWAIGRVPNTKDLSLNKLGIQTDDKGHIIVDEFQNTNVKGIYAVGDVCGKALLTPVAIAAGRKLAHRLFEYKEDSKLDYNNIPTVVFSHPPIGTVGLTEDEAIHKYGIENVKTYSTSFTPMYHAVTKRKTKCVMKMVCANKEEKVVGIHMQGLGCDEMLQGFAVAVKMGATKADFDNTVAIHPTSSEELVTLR

[5] = target: T3, thioredoxin reductase (Homo sapiens, UniProt Q16881); assay: biochemical
T3 sequence (Q16881 1-499 isoform Q16881-5): T1 sequence (Q16881 1-499 isoform Q16881-5)

[6] = test system: MCF-7 breast cancer cells; conditions: read-out: EC50 for thioredoxin growth stimulation; cited from earlier work
[7] = test system: thioredoxin-dependent cell proliferation; assay: thioredoxin- versus serum-dependent cell proliferation in culture; assay type: cell-based
[8] = test system: tumors in the colon; assay: min (multiple intestinal neoplasia) mouse chemoprevention; assay type: in vivo; conditions: in the diet at 250 ppm
Text: The min mouse has a germline mutation in the APC gene seen in human familial adenomatous polyposis (FAP). This model was chosen because of its genetic basis and as an alternative to chemically-induced models of colon cancer. The majority of the tumors that develops in the adult min mice are in the small intestine, although tumors are first diagnosed in the colon. FAP represents a high risk group of subjects with a readily identifiable early end-point marker that is suitable for trials of novel chemopreventive agents.

[9] = test system: human MCF-7 breast cancer; assay: MCF-7 breast cancer xenografts in scid mice; assay type: in vivo; conditions: for tumor inhibition: MCF-7 tumor system
[10] = test system: HL-60 leukemia; assay: HL-60 leukemia xenografts in scid mice; assay type: in vivo; conditions: for antitumor activity against HL-60 leukemia: a number of the animals without tumor at day 45
[11] = mean 50% growth inhibition concentration, leukemias
[12] = Table I, 30 min preincubation, read-out: IC50 (μg/ml) in TR/Trx Assay (converted)
[13] = Table II, read-out: IC50TRTrx (μg/ml) (converted)
[14] = Table III, read-out: in vitro IC50 TR/Trx (μg/ml) (converted)
[15] = ratio of IC50 TR alone and IC50 TR/Trx assay
[16] = mean 50% growth inhibition concentration, entire cell line panel
[17] = Table II, read-out: IC50GR (μg/ml) (converted)

Row | Compound | GI50 (μg/ml) Leukemias [1, 11] | IC50 [2, 12] | IC50 [2, 13] | IC50 [2, 14] | TR/TRTrx [2, 15] | GI50 (μg/ml) All Tumors [3, 16] | IC50 [4, 17] | further results
1 | Cc1cc2c(c(O)c1-c1c(C)cc(O)c3c1C(=O)C=CC3=O)C(=O)C=CC2=O [NSC 208731] | 0.03 µg/mL (≈ 0.0801 µM) | 267 nM | 267 nM | ≤ 267 nM | 1.0 | 0.6 µg/mL (≈ 1.6 µM) | 13400 nM | –
2 | Cc1ccc(NC(=O)/C(Cl)=C(/Cl)C(=O)O)cc1 [NSC 622378] | 1.6 µg/mL (≈ 5.84 µM) | 438 nM | 438 nM | ≤ 1820 nM | 0.8 | 5.0 µg/mL (≈ 18.2 µM) | 73000 nM | –
3 | CCc1cccc(CC)c1NC(=O)/C(Cl)=C(/Cl)C(=O)O [NSC 618605] | 2.5 µg/mL (≈ 7.91 µM) | 380 nM | 380 nM | ≤ 1580 nM | 0.8 | 7.2 µg/mL (≈ 22.8 µM) | 108000 nM | –
4 | COC(=O)C(CBr)CBr [NSC 620109] | – | – | – | – | – | – | – | GI50 (μg/ml) Leukemias [1]: 0.2 µg/mL (≈ 0.769 µM); TR/TRTrx [2]: 0.3; IC50 ([2]; read-out: IC50 (μg/ml) in TR/Trx Assay (converted)): 1230 nM; IC50 ([2]; read-out: IC50TRTrx (μg/ml) (converted)): 1230 nM; IC50 ([2]; read-out: in vitro IC50 TR/Trx (μg/ml) (converted)): ≤ 1920 nM; GI50 (μg/ml) All Tumors [3]: 1.1 µg/mL (≈ 4.23 µM); IC50 ([4]; read-out: IC50GR (μg/ml) (converted)): 127000 nM
5 | Cc1cccc2c1c1ccc3c(c1n2C)C(=O)C=CC3=O [NSC 645330] | 0.3 µg/mL (≈ 1.09 µM) | 6900 nM | 6870 nM | ≤ 18200 nM | 26.5 | 1.5 µg/mL (≈ 5.45 µM) | 182000 nM | IC50 [5]: 182000 nM
6 | thioredoxin | – | – | – | – | – | – | – | EC50 [6]: 350 nM
7 | CC(C)(CN1C(=O)C(Cl)=C(Cl)C1=O)CN1C(=O)C(Cl)=C(Cl)C1=O [NSC 617145] | 0.2 µg/mL (≈ 0.5 µM) | – | – | – | 0.8 | 4.4 µg/mL (≈ 11 µM) | – | IC50 ([2]; IC50 (μg/ml) in TR/Trx Assay): 300 nM; IC50 ([2]; IC50TRTrx (μg/ml)): 300 nM; IC50 ([2]; in vitro IC50 TR/Trx (μg/ml)): ≤ 1250 nM; IC50 [4]: 125000 nM
8 | CCC(C)SSc1ncc[nH]1 (centres unmarked) [IV-2, 1-methylpropyl 2-imidazolyl disulfide] | – | – | – | – | – | – | – | inhibition of thioredoxin- versus serum-dependent cell proliferation [7]: greater inhibition of thioredoxin than serum-dependent cell proliferation; size of remaining tumors ([8]; p<0.001 compared to control): significant reduction in the size of remaining tumors; reduction of number of tumors in the colon ([8]; p=0.0160): 70%; T/C % tumor volume at day 28 ([9]; 5 mg/kg/day for 14 days): 56.7%; T/C % tumor volume at day 28 ([9]; 10 mg/kg/day for 14 days): 45.9%; T/C % tumor volume at day 28 ([9]; 15 mg/kg/day for 14 days): 2.3%; tumor inhibition [9]: 98%; antitumor activity against MCF-7 xenografts ([9]; scid mice): dose-dependent antitumor activity; antitumor activity against HL-60 xenografts [10]: dose-dependent antitumor activity; antitumor activity against HL-60 leukemia [10]: showed antitumor activity
9 | CCCC(=O)OC1C2C(CC1(C)C)C(=O)C13OC1C(=O)C1(CO1)C23C (centres unmarked) [NSC 163027] | 0.6 µg/mL (≈ 1.72 µM) | 1090 nM | 1090 nM | ≤ 1440 nM | 13.2 | 3.1 µg/mL (≈ 8.9 µM) | 115000 nM | IC50 [5]: 14400 nM
10 | CC1COC2C3=C(C(=O)C=CC3=O)C3OC(=O)C4CCC5CC1CCC52C43 (centres unmarked) [NSC 401005] | 1.8 µg/mL (≈ 4.89 µM) | 163 nM | 163 nM | ≤ 271 nM | 1.7 | 7.6 µg/mL (≈ 20.6 µM) | 40700 nM | –
11 | O=[N+]([O-])C(=C(Sc1ccccc1)Sc1ccccc1)C(Cl)=C(Cl)Cl [NSC 665103] | 0.04 µg/mL (≈ 0.0955 µM) | 239 nM | 239 nM | ≤ 239 nM | 50.0 | 0.4 µg/mL (≈ 0.955 µM) | 76400 nM | IC50 [5]: 11900 nM
12 | c1ccc(CSSc2ncc[nH]2)cc1 [DLK-36, benzyl-2-imidazolyl disulfide] | – | – | – | 180000 nM | – | – | – | T/C % tumor volume at day 28 ([9]; 25 mg/kg/day for 14 days): 100.7%; T/C % tumor volume at day 28 ([9]; 40 mg/kg/day for 14 days): 23.7%; tumor inhibition [9]: 65%; antitumor activity against HL-60 leukemia [10]: showed antitumor activity
13 | C=C(CN(C)C)C(=O)c1ccc(C)cc1C [NSC 382000] | 0.1 µg/mL (≈ 0.46 µM) | 460 nM | 460 nM | ≤ 460 nM | 1.0 | 1.0 µg/mL (≈ 4.6 µM) | 13800 nM | –
